The source of these data is ChEMBL document CHEMBL1137806, “Cytotoxic oxoisoaporphine alkaloids from Menispermum dauricum” (J Nat Prod, 2001).

Holding throughout (type): functional, cell-based
The subject of assay [1] is A549. In words: Cytotoxicity against human A549 cells by MTT assay.
Assay [2] relates to HL-60. In words: Cytotoxicity against human HL60 cells by MTT assay.
In assay [3] the test system is MCF7. In words: Cytotoxicity against human MCF7 cells by MTT assay.
Assay [4] concerns P388. In words: Cytotoxicity against mouse P388 cells by MTT assay.

In the case of `COc1ccc2c(c1)C(=O)c1c(N)c(OC)c(OC)c3ccnc-2c13` [DAURIOXOISOPORPHINE B], the 50% inhibitory concentration (IC50) was more than 50 µM in assay [1], more than 50 µM in assay [2], 6.2 µM in assay [3] and 9.6 µM in assay [4].
With `COc1cc([C@@H]2c3cc4c(cc3[C@@H](O[C@@H]3O[C@@H]5CO[C@@H](C)O[C@H]5[C@H](O)[C@H]3O)[C@H]3COC(=O)[C@H]23)OCO4)cc(OC)c1O` [ETOPOSIDE], the IC50 was 0.5 µM in assay [1], 5.4 µM in assay [2], 12.3 µM in assay [3] and 0.1 µM in assay [4].
On the same counts, the results for `COc1ccc2c(c1)C(=O)c1c(NCCc3ccc(O)cc3)c(OC)cc3ccnc-2c13` [DAURIOXOISOPORPHINE A] are 8.8 µM, more than 50 µM, 3 µM and 30.5 µM.
